Earlier results in patent US8431151B2, “Antimicrobial nanostructured hydrogel web containing silver” (Syracuse University, priority 2009, dated 2013).

Columns and labels:
[1] = test system: 16 bacterial species including Escherichia coli, Pseudomonas aeruginosa, and Staphylococcus aureus; conditions: 16 bacterial species tested
[2] = test system: mouse bone marrow cells; conditions: 4 μg/mL silver (Ag^+)

## [Ag+] [silver (Ag^+)]
[1]
  silver concentration at which bacterial species are inhibited: 1.25 µg/mL
[2]
  detrimental effects to mouse bone marrow cells: does not exhibit any obvious detrimental effects
